ChEMBL document CHEMBL1201862, “PubChem BioAssay data set” (2004)
Active and inactive are the calls of the source.

Tests used:
[1] = biological target: T1, Heat shock factor protein 1 (Mus musculus, UniProt P38532); assay: inhibition of MG132-induced HSE-luciferase signal, confirmation, cell-based, NIH3T3, luminescence, dose retest (AID 2382); type: functional;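 note: NIH3T3 fibroblasts with HSF1-driven luciferase reporter stressed by proteasome inhibitor MG132; luminescence from HSF1-driven luciferase expression after 8 hours of MG132 stress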
T1 sequence (P38532 whole entry): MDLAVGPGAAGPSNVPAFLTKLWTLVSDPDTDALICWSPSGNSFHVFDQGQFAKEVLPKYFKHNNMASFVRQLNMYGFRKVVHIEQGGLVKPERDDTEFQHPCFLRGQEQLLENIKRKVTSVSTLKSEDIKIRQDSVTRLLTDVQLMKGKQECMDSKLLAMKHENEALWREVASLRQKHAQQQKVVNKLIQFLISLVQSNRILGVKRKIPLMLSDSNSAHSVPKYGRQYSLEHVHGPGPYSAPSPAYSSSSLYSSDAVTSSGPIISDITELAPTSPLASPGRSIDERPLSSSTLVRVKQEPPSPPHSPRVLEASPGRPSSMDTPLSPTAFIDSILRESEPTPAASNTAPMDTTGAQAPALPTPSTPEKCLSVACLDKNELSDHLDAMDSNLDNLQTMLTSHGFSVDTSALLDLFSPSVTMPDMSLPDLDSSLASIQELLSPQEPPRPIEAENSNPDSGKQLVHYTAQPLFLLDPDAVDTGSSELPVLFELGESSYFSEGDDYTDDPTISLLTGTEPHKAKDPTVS

[2] = tested on: Streptococcus sp. 'group A'; assay: growth inhibition of control SK(-) GAS strain, dose response, counter-screen for streptokinase expression inhibitor project, luminescence, kanamycin, BacTiterGlo, confirmation (AID 1900); type: functional, organism-based
[3] = biological target: T2, Streptokinase A (Streptococcus pyogenes serotype M1, UniProt P10520); assay: S. pyogenes streptokinase expression inhibitors, potency, dose response, plasminogen activation absorbance, OD405 (AID 1914); type: functional, Streptococcus pyogenes M1 GAS;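 note: secreted streptokinase activity via plasminogen activation per viability signal from cell pellet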
T2 sequence (P10520 whole entry): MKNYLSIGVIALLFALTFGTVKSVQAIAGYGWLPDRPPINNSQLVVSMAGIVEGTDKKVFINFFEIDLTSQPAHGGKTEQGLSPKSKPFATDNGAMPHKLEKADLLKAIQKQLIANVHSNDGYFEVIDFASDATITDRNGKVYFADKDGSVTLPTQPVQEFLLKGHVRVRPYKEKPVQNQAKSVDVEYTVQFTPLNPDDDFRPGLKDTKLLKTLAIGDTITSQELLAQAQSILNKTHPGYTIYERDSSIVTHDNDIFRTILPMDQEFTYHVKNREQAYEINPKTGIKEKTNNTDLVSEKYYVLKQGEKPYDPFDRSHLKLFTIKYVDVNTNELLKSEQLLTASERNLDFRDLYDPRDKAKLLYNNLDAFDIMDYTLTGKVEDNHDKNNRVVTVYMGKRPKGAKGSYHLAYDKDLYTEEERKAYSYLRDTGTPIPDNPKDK

[4] = tested on: Streptococcus; assay: Group A Streptococcus viability loss, dose response, counter-screen for streptokinase expression inhibitor project, luminescence, BacTiterGlo (AID 1915); type: functional, organism-based;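 note: potency for reduction of bacterial viability or growth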
[5] = Luminescence Cell-Based Dose Response HTS to Identify Activators of Luciferase Translation or Activity in H4 […] Cells. [Related pubchem assays: 1829 (Project Summary), 1814 (Primary HTS)]; type: functional
[6] = tested on: H4; assay: Luminescence Cell-Based Dose Response HTS to Identify Activators of 5'UTR Stem-Loop Driven Prion Protein mRNA Translation in H4 Neuroglioblastoma Cells. [Related pubchem assays: 1829 (Project Summary), 1814 (Primary HTS)]; type: functional; conditions: Homo sapiens
[7] = biological target: Cytochrome P450 2D6 (Homo sapiens, UniProt P10635);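 note: CYP2D6 member of a cytochrome P450 panel assay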
Sequence of Cytochrome P450 2D6 (P10635 whole entry): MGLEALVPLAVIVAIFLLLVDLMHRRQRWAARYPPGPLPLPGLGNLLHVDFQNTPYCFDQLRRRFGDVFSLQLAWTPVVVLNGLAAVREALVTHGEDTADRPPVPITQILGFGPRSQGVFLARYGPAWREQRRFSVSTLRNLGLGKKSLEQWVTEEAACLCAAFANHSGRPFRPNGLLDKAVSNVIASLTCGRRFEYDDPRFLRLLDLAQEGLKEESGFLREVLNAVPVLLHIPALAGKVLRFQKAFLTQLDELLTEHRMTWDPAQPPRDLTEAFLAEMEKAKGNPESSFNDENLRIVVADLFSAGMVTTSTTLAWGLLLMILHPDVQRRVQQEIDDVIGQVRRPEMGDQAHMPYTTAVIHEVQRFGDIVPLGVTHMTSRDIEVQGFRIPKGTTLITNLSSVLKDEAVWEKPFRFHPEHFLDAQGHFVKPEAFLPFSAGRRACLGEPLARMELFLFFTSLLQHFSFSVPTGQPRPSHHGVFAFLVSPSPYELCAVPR

[8] = biological target: Cytochrome P450 3A4 (Homo sapiens, UniProt P08684);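 note: CYP3A4 tested as one member of a cytochrome P450 panel screen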
Sequence of Cytochrome P450 3A4 (P08684 whole entry): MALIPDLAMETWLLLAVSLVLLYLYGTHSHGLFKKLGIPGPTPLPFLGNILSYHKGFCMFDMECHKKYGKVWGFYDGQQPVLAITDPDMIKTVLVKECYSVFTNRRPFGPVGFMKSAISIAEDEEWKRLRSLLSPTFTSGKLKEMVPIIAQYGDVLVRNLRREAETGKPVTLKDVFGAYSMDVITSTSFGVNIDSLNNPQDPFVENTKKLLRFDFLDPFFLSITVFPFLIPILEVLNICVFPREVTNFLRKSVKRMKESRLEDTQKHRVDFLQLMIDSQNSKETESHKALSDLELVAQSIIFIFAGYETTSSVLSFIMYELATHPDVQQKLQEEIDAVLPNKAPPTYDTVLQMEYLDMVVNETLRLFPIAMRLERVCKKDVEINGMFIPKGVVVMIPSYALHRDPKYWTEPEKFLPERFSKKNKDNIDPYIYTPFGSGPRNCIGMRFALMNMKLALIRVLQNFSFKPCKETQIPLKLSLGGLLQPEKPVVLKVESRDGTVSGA

[9] = Shn3 3'UTR reporter inhibitors, dose response, cell-based, Clone20 osteoblasts, firefly luciferase, cherry-picked (AID 624132); type: functional;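 note: firefly luciferase luminescence from reporter carrying the Shn3 3'UTR in osteoblasts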
[10] = control 3'UTR Renilla luciferase suppression, dose response, counter-screen for Shn3 inhibitor project, cell-based, Clone20-Shn3RL, cherry-picked (AID 624133); type: functional
[11] = Luminescence Cell-Based Dose Retest to Confirm Inhibitors of Cancer Stem Cells. [Related pubchem assays (depositor defined):AID2717, AID2721]; type: functional; conditions: Homo sapiens
[12] = biological target: T1, Heat shock factor protein 1; assay: HSF1 potentiators in luciferase reporter cells, confirmation, cell-based, NIH3T3, luminescence, dose retest (AID 435004); type: functional;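 note: stress induced by proteasome inhibitor MG132 added 30 min after compound; luciferase reporter driven by HSF1 response element in NIH3T3 cells; actives raise luminescence as potentiators of the MG132 stress response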
[13] = biological target: Cytochrome P450 2C19 (Homo sapiens, UniProt P33261); assay: Cytochrome panel assay with activity outcomes. Panel member name: p450-cyp2c19 Compounds with AC50 equal or less than 10 uM are considered active; type: functional
Sequence of Cytochrome P450 2C19 (P33261 whole entry): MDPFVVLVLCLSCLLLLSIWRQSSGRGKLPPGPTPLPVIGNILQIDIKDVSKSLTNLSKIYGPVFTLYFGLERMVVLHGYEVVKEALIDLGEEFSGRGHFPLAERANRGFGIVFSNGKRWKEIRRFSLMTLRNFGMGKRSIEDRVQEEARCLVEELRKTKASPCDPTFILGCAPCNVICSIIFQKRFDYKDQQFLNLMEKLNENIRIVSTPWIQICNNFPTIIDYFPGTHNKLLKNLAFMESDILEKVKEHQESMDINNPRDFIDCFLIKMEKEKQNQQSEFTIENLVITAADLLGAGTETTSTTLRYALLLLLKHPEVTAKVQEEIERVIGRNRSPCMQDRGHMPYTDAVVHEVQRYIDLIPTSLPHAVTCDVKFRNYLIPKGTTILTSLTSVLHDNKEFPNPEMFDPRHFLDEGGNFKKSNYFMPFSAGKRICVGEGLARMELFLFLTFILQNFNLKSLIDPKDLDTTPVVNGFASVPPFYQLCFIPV

[14] = biological target: Cytochrome P450 2C9 (Homo sapiens, UniProt P11712)
Sequence of Cytochrome P450 2C9 (P11712 whole entry): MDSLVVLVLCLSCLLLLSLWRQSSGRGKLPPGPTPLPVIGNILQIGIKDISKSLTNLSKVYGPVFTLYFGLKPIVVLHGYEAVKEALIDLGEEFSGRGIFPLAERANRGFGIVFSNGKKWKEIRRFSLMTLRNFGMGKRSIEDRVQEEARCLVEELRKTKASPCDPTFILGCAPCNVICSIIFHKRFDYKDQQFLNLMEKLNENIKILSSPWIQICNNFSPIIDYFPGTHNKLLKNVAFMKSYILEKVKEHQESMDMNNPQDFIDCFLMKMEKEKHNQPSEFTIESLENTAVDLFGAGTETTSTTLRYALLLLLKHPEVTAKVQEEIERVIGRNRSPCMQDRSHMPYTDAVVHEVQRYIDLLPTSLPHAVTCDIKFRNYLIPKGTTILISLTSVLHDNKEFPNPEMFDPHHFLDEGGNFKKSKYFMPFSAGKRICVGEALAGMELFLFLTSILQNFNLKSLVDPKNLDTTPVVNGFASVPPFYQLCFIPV

[15] = tested on: INS1; assay: beta cell apoptosis inhibitors, cytokine rescue, dose response, luminescence, retest (AID 449756); type: functional, cell-based; conditions: Rattus norvegicus;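 note: cell death triggered by IL-1 beta plus TNF-alpha plus IFN-gamma mixture; protective hits raise ATP signal compared with cytokine alone wells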
[16] = inhibitors of intracellular T. cruzi replication, confirmation, NIH3T3 host cells, beta-gal luminescence (AID 2044); type: functional, cell-based;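 note: intracellular parasites grown in NIH/3T3 mouse fibroblasts as host cells; luminescent beta-galactosidase reporter signal from transgenic T. cruzi replicating inside host cells; inhibitors lower the luminescence signal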
[17] = cytotoxicity toward NIH3T3 fibroblasts, dose response, counter-screen, cell-based, ATP luminescence, mouse fibroblasts (AID 2010); type: functional;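 note: cells exposed to compound for about 90 hours before reading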

## CC1CC1C(=O)OCC(=O)NCc1ccc(Cl)cc1Cl (stereo unspecified)
[1]
  EC50: > 195 µM (not active)

## COc1ccc(S(=O)(=O)N2CCOC2CNC(=O)C(=O)NCc2ccccc2Cl)cc1 (stereo unspecified)
[2]
  EC50: > 150 µM (not active)
[3]
  EC50: > 150 µM (not active)
[4]
  EC50: > 150 µM (not active)

## Cc1csc(NC(=O)Nc2ccccc2[N+](=O)[O-])n1
[5]
  EC50: 12.5 µM (active)
[6]
  EC50: 94 µM (active)

## CC(C)CN1CCCC2(CCN(C(=O)c3cccc(F)c3)CC2)C1
[7]
  AC50: 12.6 µM (inconclusive)
[8]
  AC50: 25.1 µM (inconclusive)

## COC(=O)C1=C(c2ccc(OCc3ccccc3)cc2)C[C@@H]2CC[C@H]1N2C(=O)NCc1ccc(OC)c(OC)c1
[9]
  AC50: 19.7 µM (active)
[10]
  AC50: 30.1 µM (active)

## O=C(CN1CCCCCC1)Nc1ccccc1Oc1ccccc1
[11]
  AC50: 0.493 µM (active)

## COc1ccc(C(=O)c2coc3ccc(O)c(CN(C)C)c23)cc1
[12]
  EC50: > 260 µM (inactive)

## O=[N+]([O-])c1cccc(-c2nnc(CNC3CC3)o2)c1
[12]
  EC50: > 260 µM (inactive)

## COc1ccc(NC(=O)c2nn(C)c(=O)c3ccccc23)cc1S(=O)(=O)Nc1ccccc1Cl
[12]
  EC50: 18.4 µM (active)

## Cc1ccc(CN2CN(S(=O)(=O)c3cccs3)c3nc4ccccc4nc32)cc1
[2]
  EC50: 56 µM (active)
[3]
  EC50: > 150 µM (not active)
[4]
  EC50: 63.7 µM (active)

## Cc1nc(C(=O)NNC(=O)c2cccc(Cl)c2)c(C(F)(F)F)o1
[1]
  EC50: > 195 µM (not active)

## CN(Cc1ccc(N(C)C)cc1)C(=O)c1cc2ccccc2o1
[2]
  EC50: > 150 µM (not active)
[3]
  EC50: > 150 µM (not active)
[4]
  EC50: > 150 µM (not active)

## CCCOc1ccc(C(=O)NNC(=S)NC(=O)c2ccccc2[N+](=O)[O-])cc1
[2]
  EC50: 2.79 µM (active)
[3]
  EC50: > 150 µM (not active)
[4]
  EC50: 10.8 µM (active)

## COC(=O)c1ccc(CNC(=O)COC(=O)COc2ccc(OC)cc2)cc1
[1]
  EC50: > 195 µM (not active)

## C[N+]1(C)CCC[C@@H](OC(=O)C(O)(c2ccccc2)c2ccccc2)C1
[13]
  AC50: inconclusive
[7]
  AC50: 10 µM (inconclusive)

## O=C(c1cnccn1)N1CCC2(CCCN(c3ccccn3)C2)CC1
[7]
  AC50: 20 µM (inconclusive)
[8]
  AC50: 7.94 µM (inconclusive)

## CCN(CC)C(S)=Nc1ccc(Cl)c(Cl)c1
[12]
  EC50: > 260 µM (inactive)

## CCOC(=O)c1c(-c2ccccc2)nc2c(C)cccn12
[7]
  AC50: 0.00562 µM (inconclusive)
[8]
  AC50: 14.1 µM (inconclusive)

## Cc1ccc(NC(=O)Cn2c(CCC(=O)O)ccc2-c2cccs2)cc1
[12]
  EC50: > 260 µM (inactive)

## COc1ccc(O)c(CN2CCC(n3nccc3NC(=O)CCOc3ccccc3)CC2)c1
[2]
  EC50: > 150 µM (not active)
[3]
  EC50: > 150 µM (not active)
[4]
  EC50: > 150 µM (not active)

## Cn1c(CO)cnc1SCC(=O)c1ccc(Cl)cc1
[12]
  EC50: > 260 µM (inactive)

## CC(=O)Oc1ccc(-c2ccc(C(=O)Nc3cccc(S(=O)(=O)N4CCOCC4)c3)cc2)cc1
[11]
  AC50: 1.52 µM (active)

## CCCc1nc(NC2CCCCC2)c(C#N)c2c1COC(C)(C)C2
[11]
  AC50: 6.71 µM (active)

## Cc1cccc(NC2(C(F)(F)F)N=C(c3ccccc3)NC2=O)n1 (stereo unspecified)
[1]
  EC50: 71.7 µM (active)
[13]; read-out: AC50
  AC50: 8.91 µM (inconclusive)
[8]
  AC50: 15.8 µM (inconclusive)
[14]
  AC50: 12.6 µM (inconclusive)

## O=S(=O)(NCc1cc(-c2ccccc2)no1)c1ccc(Cl)cc1
[7]
  AC50: 20 µM (inconclusive)
[8]
  AC50: 25.1 µM (inconclusive)

## Nc1cc(-c2ccco2)no1
[12]
  EC50: 60.4 µM (active)

## O=C(Cc1ccccc1)NCCS(=O)(=O)N1CCN(c2ccccc2)CC1
[2]
  EC50: > 150 µM (not active)
[3]
  EC50: > 150 µM (not active)
[4]
  EC50: > 150 µM (not active)

## C(=C\c1nc(N2CCCCCC2)c2ccccc2n1)/c1ccccc1
[11]
  AC50: 3.73 µM (active)
[15]
  AC50: 6.21 µM (active)

## Cc1ccccc1-n1c(C)nc2ccccc21
[1]
  EC50: > 195 µM (not active)

## O=C(COC(=O)CNC(=O)c1ccccc1F)Nc1cccnc1Cl
[1]
  EC50: > 195 µM (not active)

## Cc1ccc(N2C(=O)NC(NS(=O)(=O)c3ccccc3)(C(F)(F)F)C2=O)cc1 (stereo unspecified)
[1]
  EC50: > 195 µM (not active)

## CCC(C(=O)OCC(=O)Nc1cc(Cl)ccc1Cl)c1ccccc1 (stereo unspecified)
[1]
  EC50: > 195 µM (not active)

## O=c1c2cc(Br)ccc2[nH]c(=S)n1Cc1cccnc1
[7]
  AC50: 8.91 µM (inconclusive)
[14]
  AC50: 12.6 µM (inconclusive)

## CCN(CC)CCN(C(=O)CCS(=O)(=O)c1ccccc1)c1nc2cc(C)cc(C)c2s1
[2]
  EC50: > 150 µM (not active)
[3]
  EC50: > 150 µM (not active)
[16]
  EC50: 0.697 µM (active)
[17]
  EC50: > 30 µM (not active)
[4]
  EC50: > 150 µM (not active)

## CNC(=O)/C(C#N)=C\c1cc(C)n(-c2ccc(N3CCOCC3)cc2)c1C
[2]
  EC50: 30.4 µM (active)
[3]
  EC50: > 150 µM (not active)
[4]
  EC50: 98.2 µM (active)

## COCCCN1C(=O)c2[nH]nc(-c3ccccc3O)c2C1c1cccc(Cl)c1 (stereo unspecified)
[12]
  EC50: 59.7 µM (active)

## COc1ccc(-c2noc3c2-c2nc(-c4ccccc4C)sc2CC3)cc1
[11]
  AC50: 0.689 µM (active)

## CC(=O)OC(C)C(=O)NS(=O)(=O)c1ccc(C)cc1 (stereo unspecified)
[12]
  EC50: > 260 µM (inactive)

## O=C(CCc1nnc(Cc2ccc(-c3ccccc3)cc2)o1)N1CCCC1
[12]
  EC50: > 260 µM (inactive)

## O=C(c1ccc2nccnc2c1)N1CCCC(Nc2ccc(F)c(F)c2)C1 (stereo unspecified)
[12]
  EC50: > 260 µM (inactive)

## CCc1cccc(NC(=O)c2cccc(S(=O)(=O)N3CCN(C)CC3)c2)c1
[12]
  EC50: > 260 µM (inactive)

## COc1cc(/C=N/NC(=S)NC2CC3C=CC2C3)cc(OC)c1OC (stereo unspecified)
[12]
  EC50: > 260 µM (inactive)

## NC(=O)CN1CCCC1=O
[1]
  EC50: > 195 µM (not active)

## COc1ccc2c(c[n+](C)c3c4cc5c(cc4ccc23)OCO5)c1OC [CHELERYTHRINE]
[7]
  AC50: 25.1 µM (inconclusive)
[8]
  AC50: 31.6 µM (inconclusive)
[14]
  AC50: 39.8 µM (inconclusive)
